In PubChem BioAssay AID1996:
In brackets after ≈: the same amount, converted by molar mass.

Details: buffer; pH 7.4; 200.0 µM
For `CS(=O)(=O)c1ccc(Cl)c(NC(=O)CN2CCN(C(=O)c3cccs3)CC2)c1`, the solubility kinetic was greater than 66.3 µg/mL.
With `COc1cc(SC)ccc1C(=O)Nc1ccc(C)cc1` the solubility kinetic was 1.6 µg/mL (≈ 5.57 µM).
`COc1cccc(-n2cn[nH]c2=S)c1` showed a solubility kinetic greater than 31.1 µg/mL.
In the case of `Cc1ccc(NC(=O)Nc2cccnc2)cc1`, the solubility kinetic was greater than 34.1 µg/mL.
In the case of `FC(F)(F)c1ccc(-c2csc(-c3ccno3)n2)cc1`, the solubility kinetic was less than 0.3 µg/mL.
In the case of `O=C(Nc1cccc(F)c1)NC1CCCc2ccccc21` (centres undefined), the solubility kinetic was 2.1 µg/mL (≈ 7.39 µM).
Work on `COC(=O)c1c(NC(=O)C2=COCCO2)sc(C)c1C` yielded a solubility kinetic of 0.7 µg/mL (≈ 2.35 µM).
In the case of `C=CCOC(=O)c1cn(CC)c2nc(C)ccc2c1=O`, the solubility kinetic was greater than 40.8 µg/mL.
`COCCC(=O)Nc1ccc2c(c1)CN(C(=O)CCOC)CC2` gave a solubility kinetic greater than 48.1 µg/mL.
`COC(=O)c1cc2cc(Cl)ccc2nc1SC` showed a solubility kinetic of less than 0.6 µg/mL.
Molecule `O=C(C1COc2ccccc2O1)N1CCN(c2ccc(C(F)(F)F)cn2)CC1` (centres undefined) has a solubility kinetic of 16.3 µg/mL (≈ 41.4 µM).
For `Cc1cc(-c2ccccc2)nc2oc3c(c12)NC(=O)CN(c1ccccc1)C3=O`, the solubility kinetic was less than 0.3 µg/mL.
`NC(=O)c1ccc(NCCc2ccccc2)c([N+](=O)[O-])c1` showed a solubility kinetic of 5 µg/mL (≈ 17.5 µM).
Molecule `CC(=O)c1ccc(NC(=O)N2CCc3ccccc3C2)cc1` has a solubility kinetic of 34.3 µg/mL (≈ 117 µM).
In the case of `Cc1ccc(CC(=O)Nc2ncc([N+](=O)[O-])s2)cc1`, the solubility kinetic was 6.5 µg/mL (≈ 23.4 µM).
`CC1CCN(S(=O)(=O)c2ccc(Cl)s2)CC1` gave a solubility kinetic of 15.3 µg/mL (≈ 54.7 µM).
With `CCN1CCN(c2nc(Nc3ccc(OC)cc3)nc(N)c2[N+](=O)[O-])CC1` the solubility kinetic was 49.6 µg/mL (≈ 133 µM).
In the case of `Cc1ccccc1CC1CCN(CCCNC(=O)Nc2ccccc2)CC1`, the solubility kinetic was 39.9 µg/mL (≈ 109 µM).
Molecule `O=C(Nc1ccccc1)c1cc2ccc3ccccc3c2s1` has a solubility kinetic of less than 0.6 µg/mL.
For `Cc1[nH]c2ccccc2c1C(=O)C(=O)N(C)C1CCCCC1`, the solubility kinetic was greater than 44.8 µg/mL.
`CC(C)c1ccc(-n2ccnc2SCC(=O)O)cc1` gave a solubility kinetic greater than 41.5 µg/mL.
In the case of `Cc1ccc(/C=N\NC(=O)C2CC(=O)N(c3ccccc3)C2)o1` (centres undefined), the solubility kinetic was greater than 46.7 µg/mL.
In the case of `COC(=O)c1ccc(OCC(=O)NCCC2=CCCCC2)c(OC)c1`, the solubility kinetic was greater than 52.1 µg/mL.
For `CCOC(=O)C1=C(C)NC(C)=C(C(=O)OCC)C1C(=O)OCC(=O)N1CCOCC1`, the solubility kinetic was greater than 63.7 µg/mL.
Molecule `CCOC(=O)CCN1C(=O)c2ccccc2Sc2ncccc21` has a solubility kinetic greater than 49.3 µg/mL.
Work on `CCN(C(=O)COC(=O)c1ccccc1OCc1ccc(Cl)cc1)C1CCS(=O)(=O)C1` (centres undefined) yielded a solubility kinetic of 25 µg/mL (≈ 53.7 µM).
`CC(C)(C)c1ccc(C(=O)NCC(=O)N2CCCCCC2)cc1` showed a solubility kinetic greater than 47.5 µg/mL.
`CCc1nc2ccc(N3CCN(C)CC3)cc2nc1CC` showed a solubility kinetic of 35.2 µg/mL (≈ 124 µM).
`Cc1onc(-c2ccccc2)c1C(=O)O/N=C(\N)c1ccc([N+](=O)[O-])o1` showed a solubility kinetic of 11.6 µg/mL (≈ 32.6 µM).
`CN(CC(=O)Nc1c(Cl)cccc1Cl)CC(=O)N(C)C1(C#N)CCCCC1` gave a solubility kinetic greater than 61.7 µg/mL.
For `O=C1CSC(c2cccc([N+](=O)[O-])c2)N1C1CC2CCC1C2` (centres undefined), the solubility kinetic was 11.2 µg/mL (≈ 35.2 µM).
`CCCNC(=O)c1nn2cc(Br)cnc2c1Cl` gave a solubility kinetic greater than 47.6 µg/mL.
`C=CCN1C(=O)C2(OCCCO2)c2cc(Cl)ccc21` showed a solubility kinetic of 33.7 µg/mL (≈ 120 µM).
For `CCc1nonc1NC(=O)c1oc2ccccc2c1C`, the solubility kinetic was 3.1 µg/mL (≈ 11.4 µM).
`O=C(NC1CCN(C(=O)Nc2cccc(F)c2)CC1)c1ccco1` showed a solubility kinetic greater than 49.7 µg/mL.
In the case of `N#Cc1c(-c2ccccc2)cc(-c2ccccc2)[nH]c1=O`, the solubility kinetic was 0.6 µg/mL (≈ 2.2 µM).
Molecule `CCOc1cccc(C(=O)Nc2ccc3oc(-c4cccnc4)nc3c2)c1` has a solubility kinetic of less than 0.3 µg/mL.
`CCN1CCN(C(=O)c2cc3cc(F)ccc3[nH]2)CC1` gave a solubility kinetic of 36.4 µg/mL (≈ 132 µM).
For `Nc1nc(Nc2ccccc2F)nc(NCc2ccccc2)c1[N+](=O)[O-]`, the solubility kinetic was less than 0.1 µg/mL.
Work on `N#Cc1ccccc1COC(=O)c1ccc2c(c1)OCO2` yielded a solubility kinetic of 5.2 µg/mL (≈ 18.5 µM).
`N#C/C(=C(O)\C=C\c1ccccc1)c1nc2ccccc2[nH]1` gave a solubility kinetic of less than 0.2 µg/mL.
In the case of `CC(C)(C)C(=O)C1=C(O)C(=O)N(Cc2ccccc2)C1c1ccccc1F` (centres undefined), the solubility kinetic was greater than 55.1 µg/mL.
With `Cc1cccc(C)c1N1C(=O)CCC(C)(C)C1=O` the solubility kinetic was greater than 36.8 µg/mL.
In the case of `O=C(CSCc1ccccc1)Nc1ccc(F)cc1F`, the solubility kinetic was 41 µg/mL (≈ 140 µM).
`NC1=NC(=O)/C(=C\c2ccco2)S1` gave a solubility kinetic greater than 29.1 µg/mL.
Work on `CC1=C(C(=O)NCc2ccc(Cl)cc2)C2(CCC(C)CC2)OC1=O` (centres undefined) yielded a solubility kinetic of 4.3 µg/mL (≈ 12.4 µM).
`CCOc1ccc(C(C)=O)cc1COC(=O)CNC(=O)C12CC3CC(CC(C3)C1)C2` showed a solubility kinetic of 36.7 µg/mL (≈ 88.8 µM).
`O=C(COC(=O)c1ccccc1Br)Nc1cccnc1Cl` gave a solubility kinetic of 18.2 µg/mL (≈ 49.2 µM).
`CC(=O)c1ccc(OCc2cc([N+](=O)[O-])cc3c2OCOC3)cc1` gave a solubility kinetic of 2.6 µg/mL (≈ 7.9 µM).
`COc1cccc(OCC(=O)NC2CCCCCC2)c1` gave a solubility kinetic greater than 41.6 µg/mL.
`CCC(=NCCc1ccccc1)c1c(O)[nH]c(=O)[nH]c1=O` showed a solubility kinetic greater than 43.1 µg/mL.
Molecule `Clc1cccc(Cl)c1C[n+]1cccc2ccccc21.[Br-]` has a solubility kinetic of 51.6 µg/mL.
With `COc1cc(CCN)ccc1O.Cl` the solubility kinetic was greater than 30.6 µg/mL.
With `Cc1ccsc1CNC(=O)c1c(-c2ccccc2)noc1C` the solubility kinetic was 22.2 µg/mL (≈ 71.1 µM).
`O=C(CCN1C(=O)C2CC=CCC2C1=O)Nc1ccccc1Cl` (centres undefined) gave a solubility kinetic greater than 49.9 µg/mL.
`COc1ccc2nc(NC(=O)c3ccc(F)cc3)sc2c1` gave a solubility kinetic of less than 0.3 µg/mL.
With `Cn1c(CNC(=O)C2CCCCC2)cc2ccccc21` the solubility kinetic was 1.7 µg/mL (≈ 6.29 µM).
With `Cc1ccccc1NC(=O)C(C)SCc1ccccc1` (centres undefined) the solubility kinetic was greater than 42.8 µg/mL.
`O=C(O)c1ccc(Nc2nc(-c3cccnc3)cs2)cc1` showed a solubility kinetic greater than 44.6 µg/mL.
`CCOC(=O)COc1ccc2c(c1)c(C(C)=O)c(C)n2-c1ccccc1` showed a solubility kinetic of less than 0.8 µg/mL.
For `CC(=O)Nc1cccc(OCCCNC(=O)c2cccc3ccccc23)c1`, the solubility kinetic was 46.8 µg/mL (≈ 129 µM).
`Cc1ccc(CNS(=O)(=O)c2ccccc2[N+](=O)[O-])cc1` gave a solubility kinetic of 38.7 µg/mL (≈ 126 µM).
For `Cc1cc(=O)oc2c(C)c(OCC(=O)NCC3CCC(C(=O)O)CC3)ccc12` (centres undefined), the solubility kinetic was greater than 58.1 µg/mL.
In the case of `CCn1ccc(C(=O)NCc2ccc3c(c2)OCO3)n1`, the solubility kinetic was greater than 41 µg/mL.
`Cc1cc(C)c(S(=O)(=O)N2CCN(C3CC(=O)N(c4ccccc4Cl)C3=O)CC2)c(C)c1` (centres undefined) showed a solubility kinetic of 16.7 µg/mL (≈ 35.1 µM).
For `O=C(Cc1ccccc1)Nc1ccc(NC(=O)c2ccco2)cc1Cl`, the solubility kinetic was 2.4 µg/mL (≈ 6.76 µM).
`CN1CCN(c2ccc(F)cc2N)CC1` gave a solubility kinetic greater than 31.4 µg/mL.
Work on `C=CCNC(=O)N1CCCC(N2CCN(c3ccccc3OC)CC2)C1` (centres undefined) yielded a solubility kinetic greater than 53.8 µg/mL.
`Cc1cc(Br)ccc1NC(=O)C1C2CCC(O2)C1C(=O)O` (centres undefined) gave a solubility kinetic greater than 53.1 µg/mL.
`Cc1ccc(OCc2cc(C(=O)N3CCCC3)no2)cn1` gave a solubility kinetic greater than 43.1 µg/mL.
`CCOc1ccc(C(C)=O)cc1COc1cccnc1[N+](=O)[O-]` gave a solubility kinetic of 6 µg/mL (≈ 19 µM).
`COc1ccc(C(=O)O)cc1S(=O)(=O)N(C)CCc1ccccn1` gave a solubility kinetic greater than 52.6 µg/mL.
Work on `Cc1cc(Br)cc(C=Nc2ccc(N3CCOCC3)cc2)c1O` yielded a solubility kinetic of 6.1 µg/mL (≈ 16.3 µM).
Work on `CN(C)CCCn1c(=S)[nH]c2sc3c(c2c1=O)CCCC3` yielded a solubility kinetic greater than 48.5 µg/mL.
Molecule `Cc1cnc(C(=O)Oc2c(C)ccc(C)c2C)cn1` has a solubility kinetic of 38.2 µg/mL (≈ 149 µM).
`CC(=O)c1ccc(NC(=O)C2CC2c2ccccc2)cc1` (centres undefined) showed a solubility kinetic of 9.4 µg/mL (≈ 33.7 µM).
Molecule `CCCCOc1ccc(C(=O)NCCc2cccs2)cc1` has a solubility kinetic of 1.3 µg/mL (≈ 4.28 µM).
For `CC(C)(C)c1ccc(C(=O)Nc2ccc(Oc3cccnc3)nc2)cc1`, the solubility kinetic was 14.1 µg/mL (≈ 40.6 µM).
Work on `Cc1cc(C)nc(N2CCCC(C(=O)Nc3cccc(Cl)c3)C2)n1` (centres undefined) yielded a solubility kinetic of less than 0.2 µg/mL.
`O=C(c1ccccc1F)N1CCOCC1` showed a solubility kinetic greater than 31.4 µg/mL.
For `CCOC(=O)c1cc(NC(=O)/C=C\C(=O)O)ccc1Cl`, the solubility kinetic was greater than 44.7 µg/mL.
Molecule `Cc1nc(Cl)c(C(=O)NCCc2ccccc2)c(C)c1[N+](=O)[O-]` has a solubility kinetic of 3.5 µg/mL (≈ 10.5 µM).
`COc1ccc(-c2onc(C)c2-c2cscn2)c(O)c1` showed a solubility kinetic greater than 43.2 µg/mL.
In the case of `CCOc1ccc(-c2c(=O)n(OCC)c3ccccc3[n+]2[O-])cc1`, the solubility kinetic was 21.1 µg/mL (≈ 64.7 µM).
